Test results taken from patent US12180198B2, “Ribocil C antibiotics effective for Gram-negative pathogens” (THE BOARD OF TRUSTEES OF THE UNIVERSITY OF ILLINOIS, priority 2018, dated 2024).
Values after ≈ are worked out from the molar mass of the structure shown. Counter-ions that a name gives are not always drawn. Like-named read-outs stand apart in the source and are kept apart here.

How the values were obtained:
E. coli MG1655 = experiment: MIC, micro-dilution broth method; format: cell-based; settings: Escherichia coli
Experimental: (§1) Compounds were evaluated against a panel of Gram-positive and Gram-negative organisms. MIC values were determined using the micro-dilution broth method as outlined by the Clinical and Laboratory Standards Institute (clsi.org/) and are listed in […]. All experiments were performed in biological triplicate.
(§2) Antimicrobial susceptibility tests. Susceptibility testing was performed in biological triplicate, using the micro-dilution broth method as outlined by the Clinical and Laboratory Standards Institute. Bacteria were cultured with cation-adjusted Muller-Hinton broth (Sigma-Aldrich, Cat #90922) in round-bottom 96-well plates (Corning, Cat #3788). Human serum (pooled gender, 0.2 μm filtered) was purchased from BioIVT (Hicksville, NY).

K. pneumoniae BAA-2470 = experiment: MIC, micro-dilution broth method; format: cell-based; settings: Klebsiella pneumoniae, BAA2470
Experimental: as §1, §2

K. pneumoniae M67198 = experiment: MIC, micro-dilution broth method; format: cell-based; settings: Klebsiella pneumoniae
Experimental: as §1, §2

K. pneumoniae M67297 = experiment: MIC, micro-dilution broth method; format: cell-based; settings: Klebsiella pneumoniae
Experimental: as §1, §2

H. sapiens IMR-90 = experiment: Cell viability, Alamar Blue; format: cell-based
Experimental: Cell culture. IMR90 cells were obtained from ATCC. IMR90 cells were grown in EMEM with 10% fetal bovine serum (Gemini Benchmark, Cat #100-106), 100 U/mL penicillin, and 100 μg/mL streptomycin. All cells were cultured at 37° C. in a 5% CO2 environment. Media was prepared by the University of Illinois School of Chemical Sciences Cell Media Facility. Sex and age of cell lines: IMR90 ([…]).
Cell viability. Cells seeded (IMR90: 5,000 cells/well) a 96-well plate (Greiner Bio-One, Cat #655180) and were allowed to attach overnight. Cells were treated with investigational compounds in DMSO (30 μM, 1% DMSO final, 100 μL/well). Raptinal (100 μM) was used as a dead control. After 24 h post-treatment, media was exchanged with compound-free media. After 72 h post-treatment, cell viability was assessed using the Alamar Blue method. Stock Alamar Blue solution [10 μL, 440 μM resazurin (Sigma-Aldrich, Cat #R7017) in sterile 1×PBS] was added to each well, and plate was incubated […]. Conversion of Alamar Blue was measured with plate reader (SpectraMax M3, Molecular Devices) by fluorescence (ex 555 nm, em 585 nm, cutoff 570 nm, autogain). Percent death was determined by normalizing to DMSO-treated cells and raptinal-treated cells.

E. coli BAA-2469 = experiment: Bioactivity against exemplary strains of bacteria (Table 5A); format: cell-based; design: unit not given here; settings: Strain 2: E. coli BAA-2469
A. baumannii BAA-2093 = experiment: as above; format: cell-based; settings: Strain 3: A. baumannii BAA-2093
K. pneumoniae BAA-2146 = experiment: as above; format: cell-based; settings: Strain 4: K. pneumoniae BAA-2146
[1] = tested on: E. coli strains with intact outer membranes; experiment: MIC, micro-dilution broth method (text summary); format: cell-based; settings: Escherichia coli
Experimental: FIG. 2. Antimicrobial activity of Debio-1452 and derivatives. MIC values were determined using the micro-dilution broth method as outlined by the Clinical and Laboratory Standards Institute (clsi.org/). All experiments were performed in biological triplicate.
as §2

E. coli FabI = E. coli FabI (Escherichia coli, UniProt P0AEK4); experiment: In vitro FabI inhibition assay; format: biochemical; settings: 20 nM enzyme
E. coli FabI, sequence (P0AEK4 whole entry): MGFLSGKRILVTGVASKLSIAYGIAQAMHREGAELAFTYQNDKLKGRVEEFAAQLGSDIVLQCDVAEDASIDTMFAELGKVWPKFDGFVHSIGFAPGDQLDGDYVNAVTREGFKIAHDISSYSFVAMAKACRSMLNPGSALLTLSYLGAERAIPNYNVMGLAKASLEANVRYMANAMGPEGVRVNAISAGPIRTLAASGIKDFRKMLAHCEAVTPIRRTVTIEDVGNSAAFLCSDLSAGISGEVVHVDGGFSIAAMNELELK
Experimental: Expression and purification of E. coli FabI. E. coli BL21 (DE3) pLysS (Novagen) were transformed with pET15-ecFabI. Overnight culture (10 mL) in LB supplemented with 50 μg/mL ampicillin from single colony was diluted into 1 L LB+50 μg/mL ampicillin. Cells were grown at 37° C., 250 rpm until OD600 reached 0.8. Culture was cooled to 18° C. and induced with 0.5 mM IPTG for 18 h at 18° C. Cells were harvested by centrifugation (5,000×g, 10 min, 4° C.). Cell pellets were flash frozen and store at −20° C. pending purification. Frozen cell pellets were thawed on ice and resuspended (5 mL per gram wet pellet, typically 20-30 mL) with 0.5% CHAPS, 1 mM PMSF, 1 μg/mL leupeptin, 1 μg/mL pepstatin A, and 2 μg/mL aprotinin in binding buffer [20 mM Tris (pH 7.9), 500 mM NaCl, 5 mM imidazole]. Cells were lysed by sonication on ice (30%, 10 s pulse, 20 s rest, 5 min total). Lysate was clarified by centrifugation (35,000×g, 1 h, 4° C.) and filtration through 0.2 μm syringe filter. Lysate was incubated with 5 mL Co-NTA agarose (HisPur cobalt resin, Thermo-Fisher Scientific Cat #89965, pre-equilibrated with binding buffer) for 30 min at 4° C. with gentle rocking. Agarose-containing lysate was transferred to column and flow through discarded. Column was washed with 2 column volumes of binding buffer followed by 10 column volumes of wash buffer [20 mM Tris (pH 7.9), 500 mM NaCl, 60 mM imidazole]. Protein was eluted with 15 mL elution buffer [20 mM Tris (pH 7.9), 500 mM NaCl, 300 mM imidazole]. […] Protein concentration was determined by BCA assay (ThermoFisher Cat #23227).
In vitro FabI inhibition assay. […] Plate was placed in plate-reader (SpectraMax 190, Molecular Devices) under temperature control (25° C.), and temperature was allowed to equilibrate. […] After shaking for 5 s, reaction progress was monitored by absorbance at 340 nm every 15 s for 90 min. Linear portion of reaction progress curve was fit using plate-reader software (SoftMax Pro 7.0). Percent activity was calculated relative to DMSO-only and no-enzyme controls in each plate. […]

| SMILES | MIC (E. coli MG1655; MG1655) | MIC (K. pneumoniae BAA-2470) | MIC (K. pneumoniae M67198; M67198) | MIC (K. pneumoniae M67297; M67297) | toxicity to mammalian cells grown in culture (in words) (H. sapiens IMR-90; 24 hour exposures) | inhibition at 30 µM (H. sapiens IMR-90; Homo sapiens, IMR-90, read-out: % inhibition at 30 μM) | Bioactivity (E. coli BAA-2469) | Bioactivity (A. baumannii BAA-2093) | Bioactivity (K. pneumoniae BAA-2146) | MIC [1] | inhibition of E. coli FabI in vitro (in words) (E. coli FabI) | MIC (E. coli MG1655; E. coli MG1655, read-out: MIC) | MIC (K. pneumoniae BAA-2470; K. pneumoniae BAA-2470, read-out: MIC) | MIC (K. pneumoniae M67198; K. pneumoniae M67198, read-out: MIC) | MIC (K. pneumoniae M67297; K. pneumoniae M67297, read-out: MIC) | inhibition at 30 µM (H. sapiens IMR-90; H. sapiens IMR-90, 30 μM, 24 h exposure, viability at 72 h, read-out: % inhibition at 30 μM) | MIC ([1]; E. coli strains with intact outer membranes, read-out: MIC) |
| --- | --- | --- | --- | --- | --- | --- | --- | --- | --- | --- | --- | --- | --- | --- | --- | --- | --- |
| Cc1c(CN(C)C(=O)/C=C/c2cnc3c(c2)CC(N)C(=O)N3)oc2ccccc12 (stereo not drawn) [Debio-1452-NH3, (E)-3-(6-amino-7-oxo-5,6,7,8-tetrahydro-1,8-naphthyridin-3-yl)-N-methyl-N-((3-methylbenzofuran-2-yl)methyl)acrylamide hydrochloride] | 4 µg/mL | 4 µg/mL | 32 µg/mL | 32 µg/mL | little toxicity | 30% | 4 | 4 | 32 | 4 µg/mL | potent FabI inhibitors |  |  |  |  |  |  |
| Cc1c(CN(C)C(=O)/C=C/c2cnc3c(c2)CCC(=O)N3)oc2ccccc12 [Debio-1452, (E)-N-methyl-N-((3-methylbenzofuran-2-yl)methyl)-3-(7-oxo-5,6,7,8-tetrahydro-1,8-naphthyridin-3-yl)acrylamide, reference compound] |  |  |  |  |  |  | >32 | 16 | >32 |  | potent FabI inhibitors | > 32 µg/mL | 8 µg/mL (≈ 21.3 µM) | > 32 µg/mL | > 32 µg/mL | 16% | > 32 µg/mL |
